Test results from patent publication US12247031B2, “Cyclobutyl pyrazolopyrimidine PDE9 inhibitors” (Merck Sharp & Dohme LLC, priority 2018, dated 2025).

Biological target: Human PDE9 (PDE9A2) (Homo sapiens (Human), UniProt O76083)
Experiment: PDE9 IMAP fluorescence polarization assay
Assay type: biochemical
Conditions: human PDE9A2, FAM-cGMP substrate 50 nM, IMAP FP, apparent inhibition constant
Procedure: The activity of the compounds in accordance with the present invention as PDE9 inhibitors may be readily determined without undue experimentation using a fluorescence polarization (FP) methodology that is well known in the art (Huang, W., et al., J. Biomol Screen. 2002, 7: 215).
In a typical experiment the PDE9 inhibitory activity of the compounds of the present invention was determined in accordance with the following experimental method.
Human PDE9 (PDE9A2, GenBank Accession No. NM_001001567), full length with N-terminal GST tag, was purchased from BPS Bioscience. The fluorescence polarization assay for cyclic nucleotide phosphodiesterases was performed using an IMAP® FP kit supplied by Molecular Devices, Sunnyvale, CA (product #R8139). IMAP® technology has been applied previously to phosphodiesterase assays (Huang, W., et al., J. Biomol Screen. 2002, 7: 215).
Fluorescence polarization (mP) was calculated from the parallel (S) and perpendicular (P) fluorescence of each sample well and the analogous values for the median control well, containing only substrate (So and Po), using the following equation: Polarization (mP)=1000*(S/So−P/Po)/(S/So+P/Po).
Dose-inhibition profiles for each compound were characterized by fitting the mP data to a four-parameter equation given below. The apparent inhibition constant (KI), the maximum inhibition at the low plateau relative to “100% Inhibition Control” (Imax; e.g. 1=>same as this control), the minimum inhibition at the high plateau relative to the “0% Inhibition Control” (Imin, e.g. 0=>same as the no drug control) and the Hill slope (nH) are determined by a non-linear least squares fitting of the mP values as a function of dose of the compound using an in-house software based on the procedures described by Mosser et al., JALA. 2003, 8: 54-63, using the following equation: […]

| Compound | Ki [nM] |
| --- | --- |
| Cc1nnc(C2CCC2c2nc3c(c(C#N)nn3C(C)c3ccc(C(F)(F)F)nc3)c(=O)[nH]2)o1 (single isomer, unassigned) [Example 1, 6-(2-(5-methyl-1,3,4-oxadiazol-2-yl)cyclobutyl)-4-oxo-1-(1-(6-(trifluoromethyl)pyridin-3-yl)ethyl)-4,5-dihydro-1H-pyrazolo[3,4-d]pyrimidine-3-carbonitrile] | 28.9 |
| Cc1nnc(C2CCC2c2nc3c(c(C#N)nn3C(C)c3ccc(C(F)(F)F)nc3)c(=O)[nH]2)o1 (single isomer, unassigned) [Example 2, 6-(2-(5-methyl-1,3,4-oxadiazol-2-yl)cyclobutyl)-4-oxo-1-(1-(6-(trifluoromethyl)pyridin-3-yl)ethyl)-4,5-dihydro-1H-pyrazolo[3,4-d]pyrimidine-3-carbonitrile] | 118 |
| Cc1nnc(C2CCC2c2nc3c(c(C#N)nn3C(C)c3ccc(C(F)(F)F)nc3)c(=O)[nH]2)o1 (single isomer, unassigned) [Example 3, 6-(2-(5-methyl-1,3,4-oxadiazol-2-yl)cyclobutyl)-4-oxo-1-(1-(6-(trifluoromethyl)pyridin-3-yl)ethyl)-4,5-dihydro-1H-pyrazolo[3,4-d]pyrimidine-3-carbonitrile] | 221 |
| Cc1nnc(C2CCC2c2nc3c(c(C#N)nn3C(C)c3ccc(C(F)(F)F)nc3)c(=O)[nH]2)o1 (single isomer, unassigned) [Example 4, 6-(2-(5-methyl-1,3,4-oxadiazol-2-yl)cyclobutyl)-4-oxo-1-(1-(6-(trifluoromethyl)pyridin-3-yl)ethyl)-4,5-dihydro-1H-pyrazolo[3,4-d]pyrimidine-3-carbonitrile] | 229 |
| Cc1nnc(C2CCC2c2nc3c(c(C#N)nn3C(C)c3ccc(C(F)(F)F)nc3)c(=O)[nH]2)o1 (single isomer, unassigned) [Example 5, 6-(2-(5-methyl-1,3,4-oxadiazol-2-yl)cyclobutyl)-4-oxo-1-(1-(6-(trifluoromethyl)pyridin-3-yl)ethyl)-4,5-dihydro-1H-pyrazolo[3,4-d]pyrimidine-3-carbonitrile] | 35 |
| Cc1nnc(C2CCC2c2nc3c(c(C#N)nn3C(C)c3ccc(C(F)(F)F)nc3)c(=O)[nH]2)o1 (single isomer, unassigned) [Example 6, 6-(2-(5-methyl-1,3,4-oxadiazol-2-yl)cyclobutyl)-4-oxo-1-(1-(6-(trifluoromethyl)pyridin-3-yl)ethyl)-4,5-dihydro-1H-pyrazolo[3,4-d]pyrimidine-3-carbonitrile] | 42.7 |
| Cc1nnc(C2CCC2c2nc3c(c(C#N)nn3C(C)c3ccc(C(F)(F)F)nc3)c(=O)[nH]2)o1 (single isomer, unassigned) [Example 7, 6-(2-(5-methyl-1,3,4-oxadiazol-2-yl)cyclobutyl)-4-oxo-1-(1-(6-(trifluoromethyl)pyridin-3-yl)ethyl)-4,5-dihydro-1H-pyrazolo[3,4-d]pyrimidine-3-carbonitrile] | 167 |
| C[C@@H](c1ccc(C(F)(F)F)nc1)n1nc(C#N)c2c(=O)[nH]c(C3CCC3c3ccccn3)nc21 (single isomer, unassigned) [Example 8] | 0.034 |
| C[C@@H](c1ccc(C(F)(F)F)nc1)n1nc(C#N)c2c(=O)[nH]c(C3CCC3c3ccccn3)nc21 (single isomer, unassigned) [Example 9] | 2.72 |
| C[C@@H](c1ccc(C(F)(F)F)nc1)n1nc(C#N)c2c(=O)[nH]c(C3CCC3c3ccc(F)cn3)nc21 (single isomer, unassigned) [Example 13] | 608 |
| C[C@@H](c1ccc(C(F)(F)F)nc1)n1nc(C#N)c2c(=O)[nH]c(C3CCC3c3ccc(F)cn3)nc21 (single isomer, unassigned) [Example 14] | 0.12 |
| C[C@@H](c1ccc(C(F)(F)F)nc1)n1nc(C#N)c2c(=O)[nH]c(C3CCC3c3ncccc3F)nc21 (single isomer, unassigned) [Example 15] | 14.1 |
| C[C@@H](c1ccc(C(F)(F)F)nc1)n1nc(C#N)c2c(=O)[nH]c(C3CCC3c3ncccc3F)nc21 (single isomer, unassigned) [Example 16] | 0.461 |
| C[C@@H](c1ccc(C(F)(F)F)nc1)n1nc(C#N)c2c(=O)[nH]c(C3CCC3c3ccn(C)n3)nc21 (single isomer, unassigned) [Example 17] | 43.2 |
| C[C@@H](c1ccc(C(F)(F)F)nc1)n1nc(C#N)c2c(=O)[nH]c(C3CCC3c3ccn(C)n3)nc21 (single isomer, unassigned) [Example 18] | 35.9 |
| C[C@@H](c1ccc(C(F)(F)F)nc1)n1nc(C#N)c2c(=O)[nH]c(C3CCC3c3ccnn3C)nc21 (single isomer, unassigned) [Example 19] | 0.145 |

| Compound | Ki [nM] |
| --- | --- |
| C[C@@H](c1ccc(C(F)(F)F)nc1)n1nc(C#N)c2c(=O)[nH]c(C3CCC3c3cncnc3)nc21 (single isomer, unassigned) [Example 20] | 0.602 |
| C[C@@H](c1ccc(C(F)(F)F)nc1)n1nc(C#N)c2c(=O)[nH]c(C3CCC3c3cncnc3)nc21 (single isomer, unassigned) [Example 21] | 176 |
| CC(c1ccc(C(F)(F)F)nc1)n1nc(C#N)c2c(=O)[nH]c(C3CCC3n3cc(C#N)cn3)nc21 (single isomer, unassigned) [Example 24, 6-(2-(4-cyano-1H-pyrazol-1-yl)cyclobutyl)-4-oxo-1-(1-(6-(trifluoromethyl)pyridin-3-yl)ethyl)-4,5-dihydro-1H-pyrazolo[3,4-d]pyrimidine-3-carbonitrile] | 22.3 |
| CC(c1ccc(C(F)(F)F)nc1)n1nc(C#N)c2c(=O)[nH]c(C3CCC3n3cc(C#N)cn3)nc21 (single isomer, unassigned) [Example 25, 6-(2-(4-cyano-1H-pyrazol-1-yl)cyclobutyl)-4-oxo-1-(1-(6-(trifluoromethyl)pyridin-3-yl)ethyl)-4,5-dihydro-1H-pyrazolo[3,4-d]pyrimidine-3-carbonitrile] | 0.35 |
| CC(c1ccc(C(F)(F)F)nc1)n1nc(C#N)c2c(=O)[nH]c(C3CCC3n3ccc(C#N)n3)nc21 (single isomer, unassigned) [Example 26, 6-(2-(3-cyano-1H-pyrazol-1-yl)cyclobutyl)-4-oxo-1-(1-(6-(trifluoromethyl)pyridin-3-yl)ethyl)-4,5-dihydro-1H-pyrazolo[3,4-d]pyrimidine-3-carbonitrile] | 96.1 |
| CC(c1ccc(C(F)(F)F)nc1)n1nc(C#N)c2c(=O)[nH]c(C3CCC3n3ccc(C#N)n3)nc21 (single isomer, unassigned) [Example 27, 6-(2-(3-cyano-1H-pyrazol-1-yl)cyclobutyl)-4-oxo-1-(1-(6-(trifluoromethyl)pyridin-3-yl)ethyl)-4,5-dihydro-1H-pyrazolo[3,4-d]pyrimidine-3-carbonitrile] | 1.51 |
| CC(c1ccc(C(F)(F)F)nc1)n1nc(C#N)c2c(=O)[nH]c(C3CCC3n3ccc(C#N)n3)nc21 (single isomer, unassigned) [Example 28, 6-(2-(3-cyano-1H-pyrazol-1-yl)cyclobutyl)-4-oxo-1-(1-(6-(trifluoromethyl)pyridin-3-yl)ethyl)-4,5-dihydro-1H-pyrazolo[3,4-d]pyrimidine-3-carbonitrile] | 31 |
| CC(c1ccc(C(F)(F)F)nc1)n1nc(C#N)c2c(=O)[nH]c(C3CCC3n3ccc(C#N)n3)nc21 (single isomer, unassigned) [Example 29, 6-(2-(3-cyano-1H-pyrazol-1-yl)cyclobutyl)-4-oxo-1-(1-(6-(trifluoromethyl)pyridin-3-yl)ethyl)-4,5-dihydro-1H-pyrazolo[3,4-d]pyrimidine-3-carbonitrile] | 0.256 |
| C[C@@H](c1ccc(C(F)(F)F)nc1)n1nc(C#N)c2c(=O)[nH]c(C3CCC3n3cc(F)cn3)nc21 (single isomer, unassigned) [Example 34] | 5.9 |
| C[C@@H](c1ccc(C(F)(F)F)nc1)n1nc(C#N)c2c(=O)[nH]c(C3CCC3n3cc(F)cn3)nc21 (single isomer, unassigned) [Example 35] | 0.402 |
| C[C@@H](c1ccc(C(F)(F)F)nc1)n1nc(C#N)c2c(=O)[nH]c(C3CCC3n3cccn3)nc21 (single isomer, unassigned) [Example 36] | 148 |
| C[C@@H](c1ccc(C(F)(F)F)nc1)n1nc(C#N)c2c(=O)[nH]c(C3CCC3n3cccn3)nc21 (single isomer, unassigned) [Example 37] | 124 |
| C[C@@H](c1ccc(C(F)(F)F)nc1)n1nc(C#N)c2c(=O)[nH]c(C3CCC3n3cc(C4CC4)cn3)nc21 (single isomer, unassigned) [Example 38] | 11 |
| C[C@@H](c1ccc(C(F)(F)F)nc1)n1nc(C#N)c2c(=O)[nH]c(C3CCC3n3cc(C4CC4)cn3)nc21 (single isomer, unassigned) [Example 39] | 1.75 |
| CC(C1CCOCC1)n1nc(C#N)c2c(=O)[nH]c(C3CCC3n3cc(C#N)cn3)nc21 (single isomer, unassigned) [Example 48, 6-(2-(4-cyano-1H-pyrazol-1-yl)cyclobutyl)-4-oxo-1-(1-(tetrahydro-2H-pyran-4-yl)ethyl)-4,5-dihydro-1H-pyrazolo[3,4-d]pyrimidine-3-carbonitrile] | 366 |
